Reference: article PMC6042386, “Molecular diversity and function of jasmintides from Jasminum sambac” (BMC Plant Biology, 2018)
Where a SMILES comes first, the peptide text is derived from it. Bridges are numbered along the chain shown (N, C = ends). [ ]: non-standard residue; d: D form. pGlu = O=C1CC[C@@H](C(=O)O)N1

Experiments:
[1] = Thermal stability assay (boiling water); type: physicochemical; settings: boiling water (100 °C), quenched in ice bath 15 min, UPLC peak area before/after, monitored by MALDI-MS, three independent experiments, mean (n = 3), read-out: jasmintide remaining after thermal treatment
Description: (§1) For the thermal stability assay, jS3 were heated in boiling water for 1 h. At each time interval (1.0 h), a 30-μL sample was aliquoted and quenched in an ice bath for 15 min. For the acid stability assay, jS3 and jS4 were incubated in hydrochloric acid (pH 2.0) for 6 h. At each time interval (2, 4 and 6 h), a 30-μL sample was aliquoted and quenched by adding 1 M sodium hydroxide. For the enzymatic stability assay, jS3 and jS4 were incubated for 6 h at the optimal temperature with a buffer solution, as recommended by the manufacturer. At each time interval (2, 4 and 6 h), a 30-μL sample was aliquoted and quenched by adding 1 M hydrochloric acid. For the serum stability assay, jS3 were incubated with 25% human AB-type male serum in phenol red-free Dulbecco’s modified Eagle’s medium at 37 °C for 24 h. At each time interval (4, 8, 12 and 24 h), a 30-μL sample was aliquoted and quenched with 96% ethanol. Samples were kept at 4 °C for 15 min and then centrifuged at 18,000 rpm for 10 min. For all stability assays, the reaction mixture was analyzed by UPLC and monitored by MALDI-MS. The areas under the peak prior to and after treatment were integrated to determine stability. For each stability assay, three independent experiments were performed. At each time point, the sample was quenched by the specific reagent aforementioned and analyzed by UPLC in triplicates.

[2] = Acid stability assay (hydrochloric acid, pH 2.0); type: physicochemical; settings: hydrochloric acid pH 2.0, 37 °C, up to 6 h; quenched with 1 M sodium hydroxide; UPLC peak area, MALDI-MS; three independent experiments, mean (n = 3); read-out: jasmintide remaining under acidic conditions
Description: as §1

trypsin = experiment: Enzymatic stability assay, endopeptidase trypsin; type: in vitro ADME; settings: 37 °C, manufacturer's buffer, up to 6 h, quenched with 1 M hydrochloric acid, UPLC peak area, MALDI-MS, three independent experiments, mean (n = 3), read-out: jS3 remaining intact with trypsin
Description: as §1

carboxypeptidase A = experiment: Enzymatic stability assay, exopeptidase carboxypeptidase A; type: in vitro ADME; settings: 37 °C, manufacturer's buffer, up to 6 h, quenched with 1 M hydrochloric acid, UPLC peak area, MALDI-MS, three independent experiments, mean (n = 3), read-out: jS3 remaining intact with carboxypeptidase A
Description: as §1

[3] = Human serum stability assay; type: in vitro ADME; settings: 25% human AB-type serum; 25% human AB-type male serum in phenol red-free DMEM, 37 °C, up to 24 h; quenched with 96% ethanol; UPLC peak area, MALDI-MS; three independent experiments, mean (n = 3); read-out: jS3 remaining intact after incubation with human serum
Description: as §1

[4] = system: Tenebrio molitor mealworm larvae; experiment: Feeding deterrent no-choice assay; type: in vivo; settings: 24 h, 29 ± 1 °C in the dark, 30 larvae per concentration
Description: The antifeedant activity was examined using a no-choice assay. Oat flakes were soaked in different concentrations of jS3 (0.5 to 30 mg/g of oat) and lyophilized. The control diet was prepared in the same manner without addition of jS3. Ten T. molitor larvae of similar weights (41 ± 3 mg) were placed in a tissue culture dish with 500 mg of oats. The dishes were transferred into a rearing chamber and kept at 29 ± 1 °C in the dark. After 24 h, the remaining oat flakes were weighed, and the amount consumed was calculated. In total, 30 larvae were used for each concentration, and three independent biological experiments were performed. The feeding deterrence activity was determined as follows: Feeding Deterrence IndexFDI=C−T∗100/C+T
where C represents the average weight of consumed control diet and T represents the average weight of consumed treatment diet within the groups. The overall differences in feeding amounts were compared to the control and were compared to each other using one-way ANOVA.

T. molitor larvae = experiment: Effect of jasmintide on the growth of larvae; type: in vivo, Tenebrio molitor
Description: At day 0, 10 T. molitor larvae of similar weights (43 ± 2 mg and 47 ± 2 mg in the treatment and control sets, respectively) were fed 200 mg of a diet containing 1 mg of jS3/g of oats. Every three days, the weights of individual larva were recorded, and larvae were transferred to a new dish with the same amount of supplemented diet to maintain a continuous supply. Three independent biological experiments were carried out over a period of 9 days. The control diet was prepared in the same manner without the addition of jS3. Student’s t-test was used to compare the mean with the control.

insect Sf9 cells = experiment: Co-incubation of insect Sf9 cells with jS3 (morphology, mortality); type: cell-based; settings: concentrations up to 100 μM, co-incubation (Figure S6)

CC[C@H](C)[C@H](NC(=O)[C@H](CC(N)=O)NC(=O)[C@@H]1CSSC[C@@H]2NC(=O)[C@H](CC(=O)O)NC(=O)[C@H](CCCNC(=N)N)NC(=O)[C@H](CO)NC(=O)[C@H]([C@@H](C)O)NC(=O)[C@H](CCC(N)=O)NC(=O)[C@@H]3CSSC[C@H](NC(=O)[C@H](C(C)C)NC(=O)[C@H]([C@@H](C)O)NC(=O)[C@H](Cc4c[nH]c5ccccc45)NC(=O)[C@H]([C@@H](C)CC)NC(=O)[C@H]([C@@H](C)CC)NC(=O)[C@H](Cc4ccc(O)cc4)NC(=O)[C@H](CC(N)=O)NC2=O)C(=O)N[C@@H](CCCNC(=N)N)C(=O)N[C@@H](CC(=O)O)C(=O)NCC(=O)N[C@@H](CSSC[C@H](NC(=O)[C@H](CC(C)C)NC(=O)[C@@H]2CCC(=O)N2)C(=O)N[C@@H](CC(C)C)C(=O)N[C@@H](CC(C)C)C(=O)N3)C(=O)N1)C(=O)N[C@@H](CO)C(=O)O [jS3] ([pGlu]LCLLCQTSRDCNYIIWTVCRDGCCNIS-OH; disulfide 3-24, 6-20, 12-25; C-terminus assumed)
remaining at 1 h [1]: > 92%
remaining at 6 h [2]: > 90%
remaining at 6 h (trypsin): > 80%
remaining at 6 h (carboxypeptidase A): > 80%
remaining at 24 h [3]: > 79%
feeding deterrence index (FDI) ([4]; 1 mg/g of jasmintide in the diet (oat flakes), three independent experiments): 42.9%
feeding deterrence index (FDI) ([4]; 30 mg/g of jasmintide in the diet (oat flakes), highest value): 93.6%
average body weight of the treatment group after nine-day treatment (T. molitor larvae; after nine days on diet containing 1 mg of jS3 per gram of oat flakes, n = 30 larvae, significantly less than control (47.4 to 71.2 mg)): 62.2 mg
average body weight of the treatment group, start (T. molitor larvae; day 0, diet containing 1 mg of jS3 per gram of oat flakes, n = 30 larvae): 44.3 mg
fatality of larvae during the period of treatment (T. molitor larvae; nine-day treatment, 1 mg of jS3 per gram of oat flakes): No fatality
change in morphology and mortality rate of Sf9 cells (insect Sf9 cells): insignificant effects
